According to ChEMBL document CHEMBL1201862, “PubChem BioAssay data set” (2004):
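Briefly, cells in 96-well plates were exposed to five compound concentrations for 48 h, and endpoints were estimated by linear interpolation. GI50 is the concentration that inhibits growth by half.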 Calls of active or inactive are those of the source. Rule as the data show it: active = GI50 up to about 1.1 µM and inactive = higher.

Columns and labels:
Assay in all cases: NCI anticancer screen, dose series, 48 h
[1] = test system: NCI/ADR-RES
[2] = test system: A549
[3] = test system: NCI-H460
[4] = test system: CAKI-1
[5] = test system: KM12
[6] = test system: SK-MEL-28
[7] = test system: UACC-62
[8] = test system: OVCAR-3
[9] = test system: HT-29
[10] = test system: IGROV-1
[11] = test system: Malme-3M
[12] = test system: HCT-116
[13] = test system: SK-MEL-2
[14] = test system: HL-60
[15] = test system: Hs-578T
[16] = test system: UACC-257
[17] = test system: MOLT-4
[18] = test system: HCC 2998

SMILES	GI50 [1]	GI50 [2]	GI50 [3]	GI50 [4]	GI50 [5]	GI50 [6]	GI50 [7]	GI50 [8]	GI50 [9]	GI50 [10]	GI50 [11]	GI50 [12]	GI50 [13]	GI50 [14]	GI50 [15]	GI50 [16]	GI50 [17]	GI50 [18]
CN(Cc1cc(C(C)(C)C)cc(Br)c1O)Cc1cc(C(C)(C)C)cc(Br)c1O	3.03 µM (inactive)	3.52 µM (inactive)	1.87 µM (inactive)	3.4 µM (inactive)	2.52 µM (inactive)	5.14 µM (inactive)	3.13 µM (inactive)	2.15 µM (inactive)	4.48 µM (inactive)	1.72 µM (inactive)	4.58 µM (inactive)	3.05 µM (inactive)	2.02 µM (inactive)	4.2 µM (inactive)	2.65 µM (inactive)	2.48 µM (inactive)	3.21 µM (inactive)	–
CC1=NNC(=O)C1C1CC(c2c[nH]c3ccccc23)=NN(c2ccccc2)C1=O (stereo not given)	83.9 µM (inactive)	> 100 µM (inactive)	> 100 µM (inactive)	> 100 µM (inactive)	> 100 µM (inactive)	> 100 µM (inactive)	> 100 µM (inactive)	> 100 µM (inactive)	> 100 µM (inactive)	1.62 µM (inactive)	> 100 µM (inactive)	34.7 µM (inactive)	> 100 µM (inactive)	34.7 µM (inactive)	29.8 µM (inactive)	> 100 µM (inactive)	34 µM (inactive)	–
COC[C@@H](/N=C/c1ccc(OC)cc1)C(C)C	> 100 µM (inactive)	> 100 µM (inactive)	> 100 µM (inactive)	> 100 µM (inactive)	> 100 µM (inactive)	> 100 µM (inactive)	> 100 µM (inactive)	–	> 100 µM (inactive)	> 100 µM (inactive)	> 100 µM (inactive)	> 100 µM (inactive)	> 100 µM (inactive)	–	> 100 µM (inactive)	> 100 µM (inactive)	> 100 µM (inactive)	–
Cc1ccc(S(=O)(=O)NC(=O)NC(Cc2c[nH]c3ccccc23)C(=O)O)cc1 (stereo not given)	> 100 µM (inactive)	> 100 µM (inactive)	> 100 µM (inactive)	–	> 100 µM (inactive)	> 100 µM (inactive)	–	–	> 100 µM (inactive)	> 100 µM (inactive)	> 100 µM (inactive)	> 100 µM (inactive)	> 100 µM (inactive)	> 100 µM (inactive)	> 100 µM (inactive)	> 100 µM (inactive)	> 100 µM (inactive)	–
COc1ccc(Nc2nc3ccc(C(F)(F)F)cc3nc2C(=O)O)cc1	29.9 µM (inactive)	29.4 µM (inactive)	26 µM (inactive)	46.8 µM (inactive)	23.5 µM (inactive)	30.6 µM (inactive)	19.1 µM (inactive)	19.9 µM (inactive)	36.9 µM (inactive)	17.1 µM (inactive)	36.6 µM (inactive)	34.7 µM (inactive)	43.9 µM (inactive)	–	–	32.6 µM (inactive)	29.5 µM (inactive)	24 µM (inactive)
CC1(C)OC(=O)C(C)(C)OC1=O	> 100 µM (inactive)	> 100 µM (inactive)	> 100 µM (inactive)	> 100 µM (inactive)	> 100 µM (inactive)	> 100 µM (inactive)	> 100 µM (inactive)	> 100 µM (inactive)	> 100 µM (inactive)	> 100 µM (inactive)	> 100 µM (inactive)	> 100 µM (inactive)	> 100 µM (inactive)	> 100 µM (inactive)	> 100 µM (inactive)	> 100 µM (inactive)	> 100 µM (inactive)	–
COc1cc(S(=O)(=O)N/N=C/c2cc(Br)c(O)c(OC)c2)c(OC)cc1NC(C)=O	> 100 µM (inactive)	> 100 µM (inactive)	–	91 µM (inactive)	> 100 µM (inactive)	> 100 µM (inactive)	–	92 µM (inactive)	34 µM (inactive)	50.8 µM (inactive)	–	30.6 µM (inactive)	> 100 µM (inactive)	25 µM (inactive)	–	> 100 µM (inactive)	42.9 µM (inactive)	–
CN(C)c1ccc(/C=c2/c3ccccc3n3c2cc(C24CC5CC(CC(C5)C2)C4)[n+]3C)cc1	1.52 µM (inactive)	0.205 µM (active)	0.313 µM (active)	0.234 µM (active)	0.156 µM (active)	0.643 µM (active)	0.345 µM (active)	0.476 µM (active)	0.299 µM (active)	0.127 µM (active)	0.527 µM (active)	0.0828 µM (active)	0.313 µM (active)	0.231 µM (active)	–	0.251 µM (active)	0.998 µM (active)	0.353 µM (active)
O=C(NNCc1ccc(Cl)cc1)Nc1cccc2ccccc12	> 100 µM (inactive)	–	41.5 µM (inactive)	42.7 µM (inactive)	68.4 µM (inactive)	> 100 µM (inactive)	90.4 µM (inactive)	> 100 µM (inactive)	> 100 µM (inactive)	> 100 µM (inactive)	> 100 µM (inactive)	63 µM (inactive)	> 100 µM (inactive)	> 100 µM (inactive)	–	> 100 µM (inactive)	29.4 µM (inactive)	> 100 µM (inactive)
CC1CC2OC(=N)C1(C#N)C2(C#N)C#N (stereo not given)	29.1 µM (inactive)	> 100 µM (inactive)	–	7.57 µM (inactive)	39.3 µM (inactive)	35.3 µM (inactive)	23.4 µM (inactive)	–	19.4 µM (inactive)	20.3 µM (inactive)	15.8 µM (inactive)	16.3 µM (inactive)	20.3 µM (inactive)	–	33.8 µM (inactive)	18.8 µM (inactive)	24.7 µM (inactive)	19.5 µM (inactive)
Cc1cccc2sc(NC(=O)c3cc([N+](=O)[O-])ccc3Cl)nc12	2.76 µM (inactive)	3.86 µM (inactive)	3.96 µM (inactive)	3.85 µM (inactive)	2.42 µM (inactive)	5.22 µM (inactive)	3.61 µM (inactive)	4.06 µM (inactive)	1.85 µM (inactive)	2.68 µM (inactive)	5.38 µM (inactive)	2.55 µM (inactive)	4.46 µM (inactive)	72.9 µM (inactive)	–	6.84 µM (inactive)	–	9.33 µM (inactive)
Cc1c(C)c(C)n(C2OC(CO)C(O)C(O)C2O)c(=S)c1C#N (stereo not given)	> 100 µM (inactive)	> 100 µM (inactive)	> 100 µM (inactive)	–	> 100 µM (inactive)	> 100 µM (inactive)	> 100 µM (inactive)	> 100 µM (inactive)	> 100 µM (inactive)	> 100 µM (inactive)	> 100 µM (inactive)	> 100 µM (inactive)	> 100 µM (inactive)	> 100 µM (inactive)	–	> 100 µM (inactive)	> 100 µM (inactive)	> 100 µM (inactive)
O=C1N/C(=N/N=C/C(O)C(O)C(O)C(O)CO)N/C1=C\c1ccco1 (stereo not given)	> 100 µM (inactive)	> 100 µM (inactive)	> 100 µM (inactive)	> 100 µM (inactive)	> 100 µM (inactive)	> 100 µM (inactive)	> 100 µM (inactive)	> 100 µM (inactive)	> 100 µM (inactive)	> 100 µM (inactive)	> 100 µM (inactive)	> 100 µM (inactive)	93.8 µM (inactive)	> 100 µM (inactive)	> 100 µM (inactive)	> 100 µM (inactive)	> 100 µM (inactive)	–
CC1=N[C@@](C)(C2CC3C=CC2C3=O)COC1=O (stereo not given in full)	–	> 100 µM (inactive)	> 100 µM (inactive)	> 100 µM (inactive)	> 100 µM (inactive)	> 100 µM (inactive)	> 100 µM (inactive)	> 100 µM (inactive)	> 100 µM (inactive)	> 100 µM (inactive)	> 100 µM (inactive)	> 100 µM (inactive)	–	> 100 µM (inactive)	> 100 µM (inactive)	> 100 µM (inactive)	> 100 µM (inactive)	> 100 µM (inactive)
Nc1ccccc1/N=N/c1c(S(=O)(=O)O)cc2cc(S(=O)(=O)O)cc(O)c2c1O	> 100 µM (inactive)	> 100 µM (inactive)	–	> 100 µM (inactive)	> 100 µM (inactive)	> 100 µM (inactive)	> 100 µM (inactive)	> 100 µM (inactive)	> 100 µM (inactive)	> 100 µM (inactive)	> 100 µM (inactive)	26.2 µM (inactive)	–	–	> 100 µM (inactive)	> 100 µM (inactive)	> 100 µM (inactive)	> 100 µM (inactive)
COC(=O)[C@@H]1[C@H](O)[C@H](C)[C@H](O)[C@H](C)/C=C\C=C(\C)C(=O)Nc2c(C)c(OC(C)=O)c3c(c2O)C(=O)C(C)=C2OCOC(=C23)/C(C)=C/[C@@H](O)[C@H](O)[C@@H](C)[C@H]1OC(C)=O	–	–	–	–	95.3 µM (inactive)	55.6 µM (inactive)	–	–	31.3 µM (inactive)	67.9 µM (inactive)	34.6 µM (inactive)	22.5 µM (inactive)	–	5.36 µM (inactive)	> 100 µM (inactive)	28.3 µM (inactive)	26.5 µM (inactive)	–
Cc1ccnc2nc(-c3ccc4ccccc4c3)cc(O)c12	1.3 µM (inactive)	1.4 µM (inactive)	–	–	0.452 µM (active)	1.76 µM (inactive)	0.531 µM (active)	–	0.8 µM (active)	1.2 µM (inactive)	1.14 µM (inactive)	–	0.865 µM (active)	–	1.44 µM (inactive)	6.75 µM (inactive)	0.479 µM (active)	1.65 µM (inactive)
